Laboratory results as given in patent publication US20100292231A1, “Indazole Compounds for Treating Inflammatory Disorders, Demyelinating Disorders and Cancers” (priority 2007, published 2010).
Like-named read-outs stand apart in the source and are kept apart here.

Experiments:
MdaMb231 cells [1] = test: in vitro scratch (cell migration) assay; format: cell-based; conditions: for concentration resulting in inhibition of cell motility / migration: Mda231 cells, after 48 hrs; for Migration: Table 5 summary, concentration inhibiting migration
Description: The in vitro scratch assay is used to determine the ability of cancer cells to migrate into and close an open wound; such migration is considered to have a role in metastasis of tumor cells.
Cells were plated in gelatin-coated 6-well plates and grown until a confluent monolayer was formed. When confluent, a straight scratch was made with a p200 pipette tip, cells were washed and compounds were added at concentrations of 1 μM, 2.5 μM, 5 μM, 10 μM and 20 μM. Images were taken at specific reference points at 0, 24 and 48 hours with Zeiss Axiovert 40 CFL microscope and Axiocam MRc5 camera and the ability of the cells to move in and close the wound was measured.
The data is presented in FIG. 1, which is a bar plot of percent cell migration into the “wound” in each sample (measured with respect to the control) and FIG. 2, which is a plot of percent wound confluence as a function of time (measured with respect to the control).

FLT3 D835Y = molecular target: T1, FLT3 D835Y (Homo sapiens, UniProt P36888, D835Y); test: Kinase EC50 (10 pt curve or estimate, ATP Kmapp); format: biochemical; conditions: from 10 pt curve or estimate based on 1 μm inhibition assay at ATP Kmapp
T1 construct: purchased Invitrogen (SelectScreen platform)
T1 sequence (P36888 27-993 D835Y): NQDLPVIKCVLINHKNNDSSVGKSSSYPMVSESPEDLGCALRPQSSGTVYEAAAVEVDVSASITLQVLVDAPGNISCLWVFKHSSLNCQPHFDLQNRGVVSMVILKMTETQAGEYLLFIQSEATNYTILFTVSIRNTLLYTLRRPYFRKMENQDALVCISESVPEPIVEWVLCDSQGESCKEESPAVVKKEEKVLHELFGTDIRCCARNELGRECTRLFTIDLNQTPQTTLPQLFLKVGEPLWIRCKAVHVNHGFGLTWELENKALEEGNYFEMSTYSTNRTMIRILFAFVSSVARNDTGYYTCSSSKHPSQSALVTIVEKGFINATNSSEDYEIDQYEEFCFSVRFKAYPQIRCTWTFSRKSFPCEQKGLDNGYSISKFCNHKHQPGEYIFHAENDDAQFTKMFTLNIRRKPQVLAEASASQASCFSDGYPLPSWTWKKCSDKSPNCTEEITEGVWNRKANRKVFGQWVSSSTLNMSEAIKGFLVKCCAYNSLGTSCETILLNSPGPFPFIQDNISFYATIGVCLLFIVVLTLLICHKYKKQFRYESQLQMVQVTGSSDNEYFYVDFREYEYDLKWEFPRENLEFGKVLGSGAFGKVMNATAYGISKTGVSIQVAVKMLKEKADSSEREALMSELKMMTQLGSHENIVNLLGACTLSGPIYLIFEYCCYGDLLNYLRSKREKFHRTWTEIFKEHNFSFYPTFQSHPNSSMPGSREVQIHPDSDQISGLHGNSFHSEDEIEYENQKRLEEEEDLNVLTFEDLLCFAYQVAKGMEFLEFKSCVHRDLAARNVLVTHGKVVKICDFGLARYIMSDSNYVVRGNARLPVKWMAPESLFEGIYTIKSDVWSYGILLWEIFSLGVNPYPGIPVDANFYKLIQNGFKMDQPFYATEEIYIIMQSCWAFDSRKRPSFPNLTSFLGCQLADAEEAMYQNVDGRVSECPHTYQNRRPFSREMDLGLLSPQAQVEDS

MLCK = molecular target: T2, MLCK (Homo sapiens, UniProt Q9H1R3); test: Kinase EC50 (10 pt curve or estimate, ATP Kmapp); format: biochemical; conditions: from 10 pt curve or estimate based on 1 μm inhibition assay at ATP Kmapp
T2 construct: purchased Invitrogen (SelectScreen platform)

[2] = tested on: MV4-11 (leukemia) cell line; test: sulforhodamine B (SRB) cytotoxicity assay; format: cell-based; conditions: Homo sapiens
Description: The cytotoxic activity of compounds listed in Table 5 was determined with a sulforhodamine B (SRB) assay on panel of cell lines, including MdaMb231 (breast cancer), MV4-11 (leukemia), PC-3 (prostate cancer), U266B1 (multiple myeloma), C7 macrophages, and Raw264.7 (murine macrophage-like cells).
Cells growing in relevant media were seeded in a 96 well plate and left to adhere overnight. Cells were plated at appropriate cell densities: • MV4-11: 20.000 cells/well • Mda-Mb231: 6000 cells/well • C7: 10.000 cells/well • Raw264.7: 2000 cells/well • PC-3: 6000 cells/well • U266B1: 40.000 cells/well.
After a 3 day incubation period (6 days for C7 and Raw264.7) cells were fixed with trichloroacetic acid (TCA) to end concentration of 10% for adherent cells and 16% end concentration for suspension cells for 1 hr at 4° C. before washing. Cells were stained with 0.4% sulforhodamine-B dye (SRB) in 1% acetic acid for 30 minutes and washed in 1% acetic acid. To solubilize the dye 100 μl 10 mM Tris, pH 10.5 was added and the absorbance was read at 564 nm. IC50 values were generated using the SoftMAX Pro™ software. The data is presented below in Tables 6 through 11.

MdaMb231 cells [3] = test: BrdU cell proliferation assay; format: cell-based; conditions: for concentration at which cell proliferation was inhibited (BrdU): MdaMb231 cells, 24 hour treatment; for BrdU (Inhibition of cell proliferation): Table 5 summary, concentration inhibiting proliferation
Description: Representative compounds of the present invention were evaluated in a BrdU assay to determine their effect on the cell proliferation of MdaMb231 cells.
The effect of the inventive compounds on cell proliferation was analyzed by detecting 5-Bromo-2′-deoxy-uridine (BrdU) incorporation after 24 hour treatment with the test compounds. The cell proliferation ELISA BrdU kit (Roche™ cat. No. 11 647 229 001) was used according to manufacturer's protocol. Cells were plated at 10.000 cells/well. The next day compounds were added in concentration range of 2.5, 5, 10 and 20 μM.
After 24 hours, 12 μl/well BrdU labelling solution was added and cells were incubated for 6 hours at 37° C./5% CO2 before labeling solution was removed. Cells were fixed with 200 μl FixDenat™ solution for 30 minutes. After removal of fixative 100 μl BrdU-peroxidase working solution was added and cells were incubated for 90 minutes. Cells were subsequently washed three times. 100 μl substrate solution was added and after 30 minutes the absorbance was read at 370 nm.

[4] = MV4-11, 72 h, 100 μM highest concentration, diluted 1:5, 3 day incubation, read-out: IC50 Measured Against MV4-11 Cell Line
[5] = MV4-11, Table 5 summary, read-out: IC50 SRB assay MV4-11
[6] = MV4-11, 72 h, 50 μM highest concentration, diluted 1:4, 3 day incubation, read-out: IC50 Measured Against MV4-11 Cell Line

Compound	EC50 (FLT3 D835Y)	EC50 (MLCK)	concentration resulting in inhibition of cell motility / migration (MdaMb231 cells [1])	Migration (MdaMb231 cells [1])	IC50 [2, 4]	IC50 [2, 5]	concentration at which cell proliferation was inhibited (BrdU) (MdaMb231 cells [3])	BrdU (Inhibition of cell proliferation) (MdaMb231 cells [3])	IC50 [2, 6]
O=c1c2c(NCCCN3CCOCC3)ccc3ncn(c4ccc5[nH]ncc5c14)c32 [(X)]	11 nM	52 nM	5 µM	5 μm	2 nM	2 nM	20 µM	20 μm	–
CN(C)CCNc1ccc2ncn3c4ccc5[nH]ncc5c4c(=O)c1c23 [(XII)]	3 nM	18 nM	5 µM	>5 μm	< 1 nM	< 1 nM	2.5 µM	2.5 μm	–
CCN(CC)CCNc1ccc2ncn3c4ccc(O)cc4c(=O)c1c23 [Symadex, 5-(2-(diethylamino)ethylamino)-8-hydroxy-6H-imidazo[4,5,1-de]acridin-6-one, reference compound]	24 nM	95 nM	10 µM	10 μm	12 nM	12 nM	–	–	28 nM

Further lines, with some results ahead:

EC50 (FLT3 D835Y)	EC50 (MLCK)	Compound	concentration resulting in inhibition of cell motility / migration (MdaMb231 cells [1])	Migration (MdaMb231 cells [1])	IC50 [2, 4]	IC50 [2, 5]	concentration at which cell proliferation was inhibited (BrdU) (MdaMb231 cells [3])	BrdU (Inhibition of cell proliferation) (MdaMb231 cells [3])	IC50 [2, 6]
8 nM	53 nM	CC(CCN1CCOCC1)Nc1ccc2ncn3c4ccc5[nH]ncc5c4c(=O)c1c23 (centres unmarked) [(XVI)]	5 µM	1 μm	121 nM	121 nM	20 µM	5 μm	–
5 nM	9 nM	CN1CCN(CCCNc2ccc3ncn4c5ccc6[nH]ncc6c5c(=O)c2c34)CC1 [(XVII)]	5 µM	5 μm	–	82 nM	–	>20 μm	82 nM
12 nM	21 nM	CN(C)CCCNc1ccc2ncn3c4ccc5[nH]ncc5c4c(=O)c1c23 [Compound (IV)]	5 µM	1 μm	< 1 nM	< 1 nM	2.5 µM	2.5 μm	–
4 nM	8 nM	CCN(CC)CCCNc1ccc2ncn3c4ccc5[nH]ncc5c4c(=O)c1c23 [Compound (XV)]	1 µM	1 μm	–	< 1 nM	20 µM	–	< 1 nM
